Consider 7 compounds from patent publication US20050158391A1, “Azithromycin multiparticulate dosage forms by melt-congeal processes” (Pfizer Inc, priority 2003, published 2005).

For data set [1] the following is noted: cited from earlier work.
The nature of data set [2]: Degree of acid/ester substitution [A] from Saponification Number. The format is physicochemical. Particulars: for [A] degree of acid/ester substitution: Saponification Number (Pharmaceutical Excipients 2000) divided by 56.11. An excerpt:
However, in most cases, the excipient candidate is not available in pure form, and may constitute a mixture of several primary molecular types as well as small amounts of impurities or degradation products that could be acids or esters. In addition, many excipient candidates are natural products or are derived from natural products that may contain a wide range of compounds, making the above calculations extremely difficult, if not impossible. […] The Saponification Number is the number of milligrams of potassium hydroxide required to neutralize or hydrolyze any acid or ester substituents present in 1 gram of the material. Measurement of the Saponification Number is a standard way to characterize many commercially available pharmaceutical excipients and the manufacturer often provides an excipient's Saponification Number. The Saponification Number will not only account for acid and ester substituents present on the excipient itself, but also for any such substituents present due to impurities or degradation products in the excipient. Thus, the Saponification Number will often provide a more accurate measure of the degree of acid/ester substitution in the excipient.
The degree of acid and ester substitution on a excipient can be calculated from the Saponification Number as follows. Dividing the Saponification Number by the molecular weight of potassium hydroxide, 56.11 g/mol, results in the number of millimoles of potassium hydroxide required to neutralize or hydrolyze any acid or ester substituents present in one gram of the excipient. Since one mole of potassium hydroxide will neutralize one equivalent of acid or ester substituents, dividing the Saponification Number by the molecular weight of potassium hydroxide also results in the number of meq of acid or ester substituents present in one gram of excipient.
For example, glyceryl monostearate can be obtained with a Saponification Number of 165, as specified by the manufacturer. Thus, the degree of acid/ester substitution per gram of glyceryl monostearate or its acid/ester concentration is 165÷56.11=2.9 meq/g excipient. Using the above example of a composition with 30 wt % azithromycin and 70 wt % glyceryl monostearate, the theoretical concentration of esters formed per gram of azithromycin if all of the azithromycin reacted would be 2.9 meq/g×70/30=6.8 meq/g.
This example illustrates how the degree of acid/ester substitution can be determined from the Saponification Number for an excipient. The degree of acid/ester substitution [A] for the excipients listed in Table 5 was determined by dividing by 56.11 the Saponification Number for the carrier as listed in Pharmaceutical Excipients 2000.
This example illustrates how the degree of acid/ester substitution can be determined from the Saponification Number for an excipient. The degree of acid/ester substitution for the excipients listed in Table 6 were determined by dividing by 56.11 the Saponification Number provided by the manufacturer.

A short description of data set [3]: Solubility of azithromycin dihydrate in molten excipient. Format: physicochemical. Particulars: 65° C. The procedure:
The solubility of azithromycin dihydrate in beeswax was measured using the following procedure. A 5 g sample of beeswax was placed in a glass vial and melted at 65° C. by placing the vial in a hot-water bath. Crystals of azithromycin dihydrate were then slowly added to the molten wax, with stirring. The crystals first added dissolved into the wax. […] Thus, the solubility of azithromycin dihydrate in beeswax was determined to be about 6 wt %.
Using the procedure outlined in Screening Example 29, the solubility of azithromycin dihydrate in the excipients listed in Table 8 was determined at the temperatures listed therein. In addition, the solubility of azithromycin dihydrate was determined for mixtures of carriers in the weight ratios reported in Table 8.

Where [4] appears, read: as listed in Pharmaceutical Excipients 2000.

Like-named read-outs stand apart in the source and are kept apart here.

Regarding `CCCCCCCCCCCCCCCCCC(=O)O` [stearic acid, octadecanoic acid], in data set [1] (setting [4]), the “Saponification Number” value is given as 200-220. Also, in data set [2], the “[A] degree of acid/ester substitution” value is on record as 3.6-3.9 meq/g carrier.
On to `CC[C@H]1OC(=O)[C@H](C)[C@@H](O[C@H]2C[C@@](C)(OC)[C@@H](O)[C@H](C)O2)[C@H](C)[C@@H](O[C@@H]2O[C@H](C)C[C@H](N(C)C)[C@H]2O)[C@](C)(O)C[C@@H](C)CN(C)[C@H](C)[C@@H](O)[C@]1(C)O` [azithromycin dihydrate, 9a-aza-9a-methyl-9-deoxo-9a-homoerythromycin A], for which, in data set [3], the “solubility of azithromycin dihydrate in beeswax” value is “about 6 wt %”.
On to `CCCCCCCCCCCCCCCCCC(=O)OCC(O)CO` (stereo not drawn) [glyceryl monostearate], for which the results for the “Saponification Number” value in data set [1] (setting [4]) and in data set [1] (as specified by the manufacturer (description example)) were 155-165 and 165, respectively. The “degree of acid/ester substitution (acid/ester concentration)” value in data set [2] (165÷56.11) came to 2.9 meq/g excipient. Also, the “[A] degree of acid/ester substitution” value in data set [2] is given as 2.8-2.9 meq/g carrier.
With `CCCCCCCCCCCCCCCCCCO` [stearyl alcohol, 1-octadecanol], the “Saponification Number” value in data set [1] (setting [4]) is listed as less than 2. Besides, the “[A] degree of acid/ester substitution” value in data set [2] is reported as less than 0.04 meq/g carrier.
Consider `CCCCCCCCCCCCCCCCO` [cetyl alcohol], for which the “Saponification Number” value in data set [1] (setting [4]) is less than 2. The “[A] degree of acid/ester substitution” value in data set [2] is listed as less than 0.04 meq/g carrier.
On to sorbitan monostearate, for which, in data set [1] (setting [4]), the “Saponification Number” value is 147-157. For the same compound, the “[A] degree of acid/ester substitution” value in data set [2] was 2.6-2.8 meq/g carrier.
Turning to `CCCCCCCC/C=C\CCCCCCCC(=O)OCC(O)CO` (stereo not drawn) [glyceryl monooleate], the “Saponification Number” value in data set [1] (setting [4]) was 160-170. For the same compound, the “[A] degree of acid/ester substitution” value in data set [2] is recorded as 2.9-3.0 meq/g carrier.
